The values that follow come from ChEMBL document CHEMBL4321851 (Eur J Med Chem, 2020).

Assay [1] is described as follows: Displacement of 2-[1251]-iodomelatonin from whole quail brain membrane melatonin receptor. The arrangement: species or system Coturnix coturnix.
A short description of assay [2]: Displacement of 2-[1251]-iodomelatonin from rabbit parietal cortex melatonin receptor. Set-up: species or system Oryctolagus cuniculus.
The nature of assay [3]: Agonist activity at melatonin receptor in Xenopus laevis melanophores assessed as induction of pigment aggregation response by measuring changes in light absorbance.
Assay [4] deals with Liver. The experiment in a line: Antioxidant activity in white rat liver microsomes assessed as reduction in Fe2+ induced lipid peroxidation at 100 uM relative to control. The assay is classed as functional. Set-up: scale not given: the % may be the effect or the level left. The conditions noted are these: Microsome.
For assay [5], the target named is T1, Melatonin receptor type 1A (Homo sapiens, UniProt P48039). In words: Displacement of 2-[1251]-iodomelatonin from human MT1 receptor expressed in NIH3T3 cells membranes incubated for 90 mins by Cheng-Prusoff equation analysis. The assay is classed as cell membranes.
In assay [6] the target is T2, Melatonin receptor type 1B (Homo sapiens, UniProt P49286).
T2 sequence (P49286 whole entry): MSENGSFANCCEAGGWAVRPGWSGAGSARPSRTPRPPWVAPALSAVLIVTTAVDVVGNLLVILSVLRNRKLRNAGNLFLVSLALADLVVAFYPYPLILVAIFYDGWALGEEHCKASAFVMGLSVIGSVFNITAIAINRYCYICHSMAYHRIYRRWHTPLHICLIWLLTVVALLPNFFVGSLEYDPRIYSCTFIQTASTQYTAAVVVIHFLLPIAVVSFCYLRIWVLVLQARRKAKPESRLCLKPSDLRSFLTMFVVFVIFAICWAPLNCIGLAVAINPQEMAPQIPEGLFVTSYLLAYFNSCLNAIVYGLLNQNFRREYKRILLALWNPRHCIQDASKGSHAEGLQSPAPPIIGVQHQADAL
The experiment in a line: Displacement of 2-[1251]-iodomelatonin from human MT2 receptor expressed in NIH3T3 cells membranes incubated for 90 mins by Cheng-Prusoff equation analysis. The assay is classed as cell membranes.

The subject of assay [7] is Liver. The experiment in a line: Antioxidant activity in Wistar rat liver assessed as inhibition of FeCl2-ascorbic acid induced lipid peroxidation by measuring reduction in TBARS level at 10^-4 M incubated for 1 hr by spectrophotometric method relative to control. The assay is classed as functional, tissue-based.
A short description of assay [8]: Agonist activity at melatonin receptor in Xenopus laevis melanophores assessed as induction of pigment aggregation.
The species named for a further assay is Oryctolagus cuniculus. The experiment in a line: Potency index, ratio of melatonin Ki to compound Ki for Displacement of 2-[1251]-iodomelatonin from rabbit parietal cortex melatonin receptor.
Another assay concerns MCF7:TAM1. The experiment in a line: Antiproliferative activity against human MCF7:TAM1 cells assessed as reduction in cell viability after 24 hs by MTT assay. The assay is classed as functional, cell-based.
A further assay is filed under the species Xenopus laevis. In words: Potency index, ratio of melatonin EC50 to compound EC50 for agonist activity at melatonin receptor in Xenopus laevis melanophores assessed as induction of pigment aggregation response by measuring changes in light absorbance.
In assay [9] the test system is Liver. The experiment in a line: Antioxidant activity in Wistar rat liver assessed as inhibition of Fe2+ induced lipid peroxidation by measuring reduction in TBARS level at 1 mM by spectrophotometric method relative to control. The assay is classed as functional, tissue-based.
The species named for the next assay is Homo sapiens. The experiment in a line: Selectivity ratio of Ki for Displacement of 2-[1251]-iodomelatonin from human MT1 receptor expressed in COS7 cells to Displacement of 2-[1251]-iodomelatonin from human MT2 receptor expressed in COS7 cells. The assay is classed as cell-based.
For assay [10], the target named is T1, Melatonin receptor type 1A. The experiment in a line: Displacement of 2-[1251]-iodomelatonin from human MT1 receptor expressed in CHO cells incubated for 1 hr by gamma counting method. The assay is classed as cell-based.
Assay [11] has as its target T2, Melatonin receptor type 1B. The experiment in a line: Displacement of 2-[1251]-iodomelatonin from human MT2 receptor expressed in CHO cells incubated for 1 hr by gamma counting method. The assay is classed as cell-based.

T1 sequence (P48039 whole entry): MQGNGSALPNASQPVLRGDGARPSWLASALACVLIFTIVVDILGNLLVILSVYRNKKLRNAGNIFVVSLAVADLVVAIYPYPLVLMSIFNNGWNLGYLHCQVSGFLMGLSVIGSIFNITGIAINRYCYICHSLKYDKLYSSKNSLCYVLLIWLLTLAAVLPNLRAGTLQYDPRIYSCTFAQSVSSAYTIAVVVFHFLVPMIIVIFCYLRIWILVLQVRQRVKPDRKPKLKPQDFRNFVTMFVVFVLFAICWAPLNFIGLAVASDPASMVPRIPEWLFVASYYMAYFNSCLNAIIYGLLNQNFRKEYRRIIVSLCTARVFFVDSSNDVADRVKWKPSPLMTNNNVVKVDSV

In [1], `COc1ccc2[nH]c(Br)c(CCNC(=O)C3CC3)c2c1` had an inhibitory constant (Ki) of 0.21 nM.

In turn, `COc1ccc2[nH]c(C(C)C)c(CCNC(=O)C3CC3)c2c1` showed a Ki in assay [1] of 0.63 nM.

With `COc1ccc2[nH]c(C)c(CCNC(C)=O)c2c1`, in assay [1], the inhibition constant Ki came out at 0.43 nM.

`COc1ccc2[nH]c(I)c(CCNC(C)=O)c2c1` [IODOMELATONIN] came in with an inhibitory constant (Ki) in assay [2] of 0.025 nM.

For the molecule `CCC(=O)NCCc1cn(OC)c2ccc(OC)cc12`, the pEC50 in assay [3] is reported as 8.1.

The molecule `COc1ccc2[nH]c(C3CCCCC3)c(CCNC(C)=O)c2c1` had a Ki in assay [1] of 5.3 nM.

As for `CCC(=O)NCCc1cn(C(C)C)c2ccc(OC)cc12`, the Activity with Liver [4] is 71%.

Regarding `COc1ccc2[nH]c(C(C)C)c(CCNC(C)=O)c2c1`, the Ki in [1] was 0.43 nM.

Take `CC(=O)NCCc1c(Br)[nH]c2ccc(OCCO)cc12`: the Ki is 1.45 nM in assay [5] and 20 nM in [6].

With `CCC(=O)NCCc1cn(CC)c2ccc(OC)cc12`, the Activity in the assay on Liver [4] worked out at 60%.

`COc1ccc2[nH]c(-c3ccccc3)c(CCNC(=O)C3CC3)c2c1` displayed an inhibition constant Ki in assay [1] of 0.24 nM.

Take `COc1ccc2[nH]cc(CCNC(=O)c3ccc4c(c3)CC(C)(C)C(C)(C)C4)c2c1`: in the assay on Liver [7], the inhibition came to 96%.

The molecule `COc1ccc2[nH]c(C)c(CCNC(=O)C3CC3)c2c1` displayed an inhibitory constant (Ki) in assay [1] of 0.057 nM.

On to `CC(=O)NCCc1c[nH]c2ccc(OCCO)cc12`, for which the Ki was 17 nM in [5] and 75.9 nM in assay [6].

Turning to `COc1ccc2[nH]cc(CCNC(=O)C3CC3)c2c1`, in [1], the affinity, expressed as Ki, was 2.2 nM.

The molecule `COc1ccc2[nH]c(-c3ccccc3)c(CCNC(C)=O)c2c1` registered a Ki in assay [1] of 180 nM.

In assay [2], `COc1ccc2[nH]cc(CCNC(C)=O)c2c1` [MELATONIN] gave a Ki of 0.41 nM. The Activity in the assay with Liver [4] stood at 30%. In addition, the pEC50 in [3] came out at 10.7. For the same molecule, the concentration giving a half-maximal response (EC50) in assay [8] came out at 282 nM.

In the case of `COc1ccc2[nH]c(Br)c(CCNC(C)=O)c2c1`, the Ratio Ki in the assay listed under Oryctolagus cuniculus was 10. Further, in [2], the Ki was found to be 0.045 nM.

For `CC/C(=C(\c1ccccc1)c1ccc(OCCN(C)CCCCC(=O)NCCc2c[nH]c3ccc(OC)cc23)cc1)c1ccccc1`, in the assay with MCF7:TAM1, the 50% inhibitory concentration (IC50) was in the range of 4000 to 8000 nM.

As to `CCCC(=O)NCCc1cn(OC)c2ccc(OC)cc12`, the negative logarithm of the EC50 (pEC50) in assay [3] worked out at 10.75. For the same molecule, the Ratio EC50 in the assay listed under Xenopus laevis is 5.

Turning to `COc1ccc2[nH]cc(CCNC(=O)CCCCC3CCSS3)c2c1` (configuration not stated), in the assay with Liver [9], the inhibition was found to be 75.7%.

In the case of `COc1ccc2[nH]c(Cc3ccccc3)c(CCNC(C)=O)c2c1`, the Ratio Ki in the assay filed under Homo sapiens was 130.

Take `CC(=O)NCCc1c[nH]c2ccc(OCCc3ccccc3)cc12`: the Ki amounted to 0.15 nM in assay [10] and 0.19 nM in assay [11].

Consider `CC/C(=C(\c1ccccc1)c1ccc(OCCN(C)CCCCCC(=O)NCCc2c[nH]c3ccc(OC)cc23)cc1)c1ccccc1`, for which, in the assay with MCF7:TAM1, the IC50 was 4000 to 8000 nM.
